Results reported in US11597724B2, “Herbicidally active 3-phenylisoxazoline-5-carboxamides of tetrahydro and dihydrofuran carboxylic acids and esters” (Bayer Aktiengesellschaft, priority 2017, dated 2023).

Key:
Type in all cases: in vivo
[1] = system: Setaria viridis; assay: Pre-emergence herbicidal activity against SETVI; details: dosage 80 g/ha; for pest or weed control at 80 g/ha: Setaria viridis, 504 h
Source text: 1. Pre-Emergence Herbicidal Action and Crop Plant Compatibility Seeds of monocotyledonous and dicotyledonous weed plants and crop plants are placed in plastic or wood fiber pots and covered with soil. The compounds of the invention, formulated in the form of wettable powders (WP) or as emulsion concentrates (EC), are then applied onto the surface of the covering soil as aqueous suspension or emulsion with addition of 0.5% additive at a water application rate of 600 l/ha (converted). After the treatment, the pots are placed in a greenhouse and kept under good growth conditions for the trial plants. After about 3 weeks, the effect of the preparations is scored visually in comparison with untreated controls as percentages. For example, 100% activity=the plants have died, 0% activity=like control plants. POLCO: Polygonum convolvulus SETVI: Setaria viridis

[2] = system: Stellaria media; assay: Pre-emergence herbicidal activity against STEME; details: dosage 80 g/ha; for pest or weed control at 80 g/ha: Stellaria media, 504 h
How it was run: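 Weed seeds sown in pots and covered with soil, then WP or EC formulations sprayed onto the soil surface as aqueous suspension/emulsion with 0.5% additive at 600 l/ha water. Kept in greenhouse; visual percent effect versus untreated controls scored after about 3 weeks (100% = plants dead).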

[3] = system: Alopecurus myosuroides; assay: Post-emergence herbicidal activity against ALOMY; details: dosage 320 g/ha, rated about 3 weeks after treatment; for pest or weed control at 320 g/ha: Alopecurus myosuroides, 504 h
How it was run: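 Greenhouse-grown plants treated at one-leaf stage, 2 to 3 weeks after sowing, with WP or EC formulations sprayed as aqueous suspension/emulsion plus 0.5% additive at 600 l/ha. Activity rated visually about 3 weeks later versus untreated controls (100% = plants dead, 0% = like control).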

[4] = system: Setaria viridis; assay: Post-emergence herbicidal activity against SETVI; details: dosage 320 g/ha, rated about 3 weeks after treatment; for pest or weed control at 320 g/ha: Setaria viridis, 504 h
How it was run: (§1)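 Greenhouse weeds in sandy loam were sprayed at the one-leaf stage, 2–3 weeks after sowing, with WP or EC formulations plus 0.5% additive at 600 l/ha water. About 3 weeks later, damage was rated visually against untreated controls, where 100% means plants dead and 0% means like control.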

[5] = system: Pharbitis purpurea; assay: Post-emergence herbicidal activity against PHBPU; details: dosage 320 g/ha, rated about 3 weeks after treatment; for pest or weed control at 320 g/ha: Ipomoea purpurea, 504 h
How it was run: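 Greenhouse-grown plants sprayed post-emergence at the one-leaf stage, 2 to 3 weeks after sowing, with WP or EC formulations plus 0.5% additive at 600 l/ha water. Activity rated visually after about 3 weeks versus untreated controls (100% = plants dead, 0% = like control).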

[6] = system: Polygonum convolvulus; assay: Post-emergence herbicidal activity against POLCO; details: dosage 320 g/ha, rated about 3 weeks after treatment; for pest or weed control at 320 g/ha: Fallopia convolvulus, 504 h
How it was run: as §1

[7] = system: Stellaria media; assay: Post-emergence herbicidal activity against STEME; details: dosage 320 g/ha, rated about 3 weeks after treatment; for pest or weed control at 320 g/ha: Stellaria media, 504 h
How it was run: (§2)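 Greenhouse plants treated at one-leaf stage, 2–3 weeks after sowing, by spraying WP or EC formulations with 0.5% additive at 600 l/ha water. Visual rating about 3 weeks later versus untreated controls (100% = plants dead, 0% = like controls).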

[8] = system: Veronica persica; assay: Post-emergence herbicidal activity against VERPE; details: dosage 320 g/ha; for pest or weed control at 320 g/ha: Veronica persica, 504 h
How it was run: as §2

[9] = system: Hordeum murinum; assay: Post-emergence herbicidal activity against HORMU; details: dosage 320 g/ha; for pest or weed control at 320 g/ha: Hordeum murinum, 504 h
How it was run: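 Greenhouse pot plants sprayed post-emergence at one-leaf stage (2-3 weeks after sowing) with WP or EC formulations, 0.5% additive, 600 l/ha water. Visual rating about 3 weeks later versus untreated controls: 100% = plants dead, 0% = like control.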

For `CCOC(=O)[C@H]1C[C@@H](NC(=O)C2(C)CC(c3cccc(F)c3)=NO2)CO1` (mixture of isomers) [I-30, ethyl cis-4-[[(5RS)-3-(3-fluorophenyl)-5-methyl-4H-isoxazole-5-carbonyl]amino]tetrahydrofuran-2-carboxylate], the pest or weed control at 80 g/ha [1] was 100%, the pest or weed control at 80 g/ha [2] was 90% and the pest or weed control at 320 g/ha [3] was 100%. For the same molecule, the pest or weed control at 320 g/ha [4] was 90%, the pest or weed control at 320 g/ha [5] was 90% and the pest or weed control at 320 g/ha [6] was 80%. It also gave a pest or weed control at 320 g/ha [7] of 90%, a pest or weed control at 320 g/ha [8] of 80% and a pest or weed control at 320 g/ha [9] of 100%.
In the case of `CC(C)(C)OC(=O)C1CC(NC(=O)C2(C)CC(c3cc(F)cc(F)c3)=NO2)CO1` (mixture of isomers) [I-42], the “Pre-emergence herbicidal activity against SETVI in %” value [1] is reported as 100%, the “Pre-emergence herbicidal activity against STEME in %” value [2] is reported as 100% and the “Post-emergence herbicidal activity against ALOMY in %” value [3] is reported as 100%. For the same molecule, the “Post-emergence herbicidal activity against SETVI in %” value [4] was 90%, the “Post-emergence herbicidal activity against PHBPU in %” value [5] was 90% and the “Post-emergence herbicidal activity against POLCO in %” value [6] was 80%. The “Post-emergence herbicidal activity against STEME in %” value [7] was 90%, the “Post-emergence herbicidal activity against VERPE in %” value [8] was 80% and the “Post-emergence herbicidal activity against HORMU in %” value [9] was 100%.
In the case of `COC(=O)C1CC(NC(=O)C2(C)CC(c3cc(F)cc(F)c3)=NO2)CO1` (mixture of isomers) [I-48], the “Pre-emergence herbicidal activity against SETVI in %” value [1] is reported as 100%, the “Pre-emergence herbicidal activity against STEME in %” value [2] is reported as 100% and the “Post-emergence herbicidal activity against ALOMY in %” value [3] is reported as 90%. The “Post-emergence herbicidal activity against SETVI in %” value [4] was 80%, the “Post-emergence herbicidal activity against PHBPU in %” value [5] was 80% and the “Post-emergence herbicidal activity against POLCO in %” value [6] was 80%. For the same molecule, the “Post-emergence herbicidal activity against STEME in %” value [7] was 90%, the “Post-emergence herbicidal activity against VERPE in %” value [8] was 80% and the “Post-emergence herbicidal activity against HORMU in %” value [9] was 90%.
`CC(C)(C)OC(=O)[C@H]1C[C@@H](NC(=O)C2(C)CC(c3cccc(F)c3)=NO2)CO1` (mixture of isomers) [I-33, tert-butyl cis-4-[[(5RS)-3-(3-fluorophenyl)-5-methyl-4H-isoxazole-5-carbonyl]amino]tetrahydrofuran-2-carboxylate] showed a pest or weed control at 80 g/ha [1] of 100%, a pest or weed control at 80 g/ha [2] of 100% and a pest or weed control at 320 g/ha [3] of 100%. The pest or weed control at 320 g/ha [4] was 90%, the pest or weed control at 320 g/ha [5] was 90% and the pest or weed control at 320 g/ha [6] was 80%. It also gave a pest or weed control at 320 g/ha [7] of 90%, a pest or weed control at 320 g/ha [8] of 80% and a pest or weed control at 320 g/ha [9] of 90%.
